In patent publication US7709606B2, “Interacting polypeptide comprising a heptapeptide pattern and a cellular penetration domain” (Ecole Normale Superieure de Lyon, priority 2003, dated 2010):
pEC50: −log10 of the molar value. Read-outs that look alike come from different tables or passages of the source.

Tests used:
HIV-1/Ba-L = test: antiviral test in monocyte-derived macrophages (MDM), RT activity; assay type: cell-based; conditions: for anti-HIV activity, HIV-1/Ba-L replication: MDM, in words; for Percentage inhibition, Mean / ED70 / ED90 / pEC50: MDMs, HIV-1/Ba-L; for pEC50: Human immunodeficiency virus 1, BAL, Macrophage, read-out: ED50 (the source's name)
Experimental: (§1) These viruses were amplified in vitro with umbilical blood mononuclear cells (UBMC) activated with PHA-P. The cell-free supernatant was centrifuged at […] for 10 minutes to eliminate soluble factors, and the residue was re-suspended in cell culture medium. Virus stocks were titrated using PBMC cells activated with PHA-P and 50% tissue culture infectious doses (TCID50) were calculated using Kärber's formula.
The MDM cells were pre-treated for 30 minutes in 6 concentrations of different molecules and infected with 30000 TCID50 of the HIV-1/Ba-L strain. AZT (0.8, 4, 20, 100 and 500 nM) and indinavir (0.8, 4, 20, 100 and 500 nM) were used as the control. […] The molecules were maintained for 7 days post infection, and the cellular supernatant was harvested 7, 14 and 21 days post infection and stored at −20° C. to measure viral replication by reverse transcriptase activity (RT) assay.
(§2) HIV replication was analyzed by assaying the RT activity in the supernatants from cell cultures using the RetroSys RT kit (Innovagen). The experiments were carried out 3 times and the results are expressed as the mean of the RT activity±the standard deviation (SD).

HIV-1-LA1 = test: antiviral test in PHA-P activated PBMC, RT activity; assay type: cell-based; conditions: for anti-HIV activity, replication of HIV-1-LA1: PBMC activated by PHA-P, 7th day, in words; for Percentage inhibition, Mean: HIV-1 LA1, day 7
Experimental: as §1
PBMC cells were pre-treated for 30 minutes by 5 concentrations of each molecule and infected with 75 TCID50 of the HIV-1-LA1 strain. AZT (1.6, 8, 40, 200 and 1000 nM) and indinavir (1.6, 8, 40, 200 and 1000 nM) were used as the control. […] The molecules were maintained throughout culture, and the cellular supernatant was harvested 7 days post infection and stored at −20° C. to measure viral replication by reverse transcriptase activity (RT) assay.
as §2
In a last step, it was examined whether SHPs were actually capable of inhibiting HIV-1 replication. This was carried out in PBMCs activated by PHA-P and in MDMs. […] The effects of different SHPs was thus tested at this time. AZT and indinavir were used as controls.

Row | Compound | anti-HIV activity, HIV-1/Ba-L replication (HIV-1/Ba-L) | Percentage inhibition, Mean (HIV-1/Ba-L; Day 7, dose 0.8 (nM)) [%] | Percentage inhibition, Mean (HIV-1/Ba-L; Day 7, dose 4 (nM)) [%] | Percentage inhibition, Mean (HIV-1/Ba-L; Day 7, dose 20 (nM)) [%] | Percentage inhibition, Mean (HIV-1/Ba-L; Day 7, dose 100 (nM)) [%] | Percentage inhibition, Mean (HIV-1/Ba-L; Day 7, dose 500 (nM)) [%] | ED70 (HIV-1/Ba-L; Day 14) [nM] | ED90 (HIV-1/Ba-L; Day 14) [nM] | Percentage inhibition, Mean (HIV-1/Ba-L; Day 14, dose 0.8 (nM)) [%] | Percentage inhibition, Mean (HIV-1/Ba-L; Day 14, dose 4 (nM)) [%] | Percentage inhibition, Mean (HIV-1/Ba-L; Day 14, dose 20 (nM)) [%] | Percentage inhibition, Mean (HIV-1/Ba-L; Day 14, dose 100 (nM)) [%] | Percentage inhibition, Mean (HIV-1/Ba-L; Day 14, dose 500 (nM)) [%] | Percentage inhibition, Mean (HIV-1/Ba-L; Day 21, dose 0.8 (nM)) [%] | Percentage inhibition, Mean (HIV-1/Ba-L; Day 21, dose 4 (nM)) [%] | Percentage inhibition, Mean (HIV-1/Ba-L; Day 21, dose 20 (nM)) [%] | Percentage inhibition, Mean (HIV-1/Ba-L; Day 21, dose 100 (nM)) [%] | Percentage inhibition, Mean (HIV-1/Ba-L; Day 21, dose 500 (nM)) [%] | anti-HIV activity, replication of HIV-1-LA1 (HIV-1-LA1) | ED70 (HIV-1-LA1; PBMCs, HIV-1-LA1, 7th day) [nM] | other results
1 | Cc1cn([C@H]2C[C@H](N=[N+]=[N-])[C@@H](CO)O2)c(=O)[nH]c1=O [AZT, reference compound] | reduced in a dose-dependent manner | 76 | 72 | 87 | 88 | 93 | 9 | 64 | 0 | 55 | 82 | 92 | 100 | 0 | 0 | 68 | 81 | 100 | effectively inhibited | 13.5 | ED90 (HIV-1-LA1; PBMCs, HIV-1-LA1, 7th day): 19 nM; Percentage inhibition, Mean (HIV-1-LA1; PBMCs, Dose 1.6 (nM)): 0%; Percentage inhibition, Mean (HIV-1-LA1; PBMCs, Dose 8 (nM)): 81%; Percentage inhibition, Mean (HIV-1-LA1; PBMCs, Dose 40 (nM)): 98%; Percentage inhibition, Mean (HIV-1-LA1; PBMCs, Dose 200 (nM)): 98%; Percentage inhibition, Mean (HIV-1-LA1; PBMCs, Dose 1000 (nM)): 100%
2 | CC(C)(C)NC(=O)[C@@H]1CN(Cc2cccnc2)CCN1C[C@@H](O)C[C@@H](Cc1ccccc1)C(=O)N[C@H]1c2ccccc2C[C@H]1O [IDV, indinavir, reference compound] | reduced in a dose-dependent manner | 59 | 69 | 90 | 93 | 97 | 26.5 | 34.5 | 0 | 0 | 68 | 100 | 100 | 0 | 0 | 47 | 96 | 100 | effectively inhibited | 18 | pEC50 (HIV-1/Ba-L; 336 h, Day 14): 7.66; pEC50 (HIV-1/Ba-L; 504 h, Day 21): 7.66; ED70 (HIV-1/Ba-L; Day 21): 32 nM; ED90 (HIV-1/Ba-L; Day 21): 62 nM; pEC50 (HIV-1-LA1; Human immunodeficiency virus 1, PBMC, PBMCs, HIV-1-LA1, 7th day, read-out: ED50 (the source's name)): 7.85; ED90 (HIV-1-LA1; PBMCs, HIV-1-LA1, 7th day): 25.5 nM; Percentage inhibition, Mean (HIV-1-LA1; PBMCs, Dose 1.6 (nM)): 0%; Percentage inhibition, Mean (HIV-1-LA1; PBMCs, Dose 8 (nM)): 67%; Percentage inhibition, Mean (HIV-1-LA1; PBMCs, Dose 40 (nM)): 92%; Percentage inhibition, Mean (HIV-1-LA1; PBMCs, Dose 200 (nM)): 100%; Percentage inhibition, Mean (HIV-1-LA1; PBMCs, Dose 1000 (nM)): 100%
